# Reference: patent US20110044938A1 (NYCOMED GMBH, priority 2006, published 2011)
# Experiments:
# [1] = test system: RKO (RKOp27) human colon adenocarcinoma cells; test: Alamar Blue cell viability assay, anti-proliferative/cytotoxic activity on proliferating RKO subclones; assay type: cell-based; details: RKOp27, 72 h, RKO p27 uninduced (proliferating) cells, value = class bound given in Table A, read-out: −logIC50 RKO p27 uninduced (proliferating) (converted)
# Protocol: The anti-proliferative/cytotoxic activity of the compounds described herein, can be tested on subclones of RKO (RKOp27) human colon adenocarcinoma cells (Schmidt et al., Oncogene 19, 2423-2429; 2000) using the Alamar Blue cell viability assay (described in O'Brien et al. Eur J Biochem 267, 5421-5426, 2000). The compounds are dissolved as 20 mM solutions in dimethylsulfoxide (DMSO) and subsequently diluted in semi-logarithmic steps. DMSO dilutions are further diluted 1:100 into Dulbecco's modified Eagle's medium (DMEM) containing 10% fetal calf serum to a final concentration twice as much as the final concentration in the test. RKO subclones are seeded into 96 well flat bottom plates at a density of 5000 cells per well in a volume of 50 μl per well. 24 hours after seeding the 50 μl each of the compound dilutions in DMEM medium are added into each well of the 96 Well plate. Each compound dilution is tested as quadruplicates. Wells containing untreated control cells are filled with 50 μl DMEM medium containing 1% DMSO. The cells are then incubated with the substances for 72 hours at 37° C. in a hunified atmosphere containing 5% carbon dioxide. To determine the viability of the cells, 10 μl of an Alamar Blue solution (Biosource) are added and the fluorescence is measured at an extinction of 544 nm and an emission of 590 nm. For the calculation of the cell viability the emission value from untreated cells is set as 100% viability and the emission rates of treated cells are set in relation to the values of untreated cells. Viabilities are expressed as % values.
# The corresponding IC50 values of the compounds for anti-proliferative/cytotoxic activity are determined from the concentration-effect curves.
# (§1) Representative −log IC50 [mol/l] values for anti-proliferation/cytotoxicity determined in the mentioned assays follow from the following table A, in which the numbers of the compound correspond to the numbers of the examples.
# [2] = test system: subclones of RKO colon adenocarcinoma cells (RKOp27 or RKOp21) arrested by Ponasterone A; test: Alamar Blue cell viability assay, cell cycle specific mode of action: cells arrested by ectopic p27Kip1 induced by Ponasterone A versus proliferating cells; assay type: cell-based; details: Homo sapiens, RKO p27 induced (arrested) cells, 10 μM Ponasterone A, 72 hours, value = class bound given in Table A, read-out: −logIC50 RKO p27 induced (arrested) (converted)
# Protocol: To determine the cell cycle specific mode of action, subclones of RKO colon adenocarcinoma cells (RKOp27 or RKOp21 as described by Schmidt et al. in Oncogene 19, 2423-2429; 2000) are seeded into 96 well flat bottom plates at a density of 15000 cells per well in a volume of 50 μl per well in DMEM growth medium with 10% FCS containing 10 μM Ponasterone A. 24 hours after seeding the 50 μl each of the compound dilutions in DMEM medium are added into each well of the 96 Well plate. Each compound dilution is tested as quadruplicates. Wells containing untreated control cells are filled with 50 μl DMEM medium containing 1% DMSO. The cells are then incubated with the substances for 72 hours at 37° C. in a humidified athmosphere containing 5% carbon dioxide. To determine the viability of the cells, 10 μl of an Alamar Blue solution (Biosource) are added and the fluorescence was measured at an extinction of 544 nm and an emission of 590 nm. For the calculation of the cell viability the emission value from untreated cells is set as 100% viability and the emission rates of treated cells are set in relation to the values of untreated cells. Viabilities are expressed as % values. Viability is compared of proliferating cells grown in the absence of the inducer Ponasterone A, versus viability of cells arrested by the expression of ectopic p27Kip1 induced by Ponasterone A.
# as §1
IC50 [2],Structure (SMILES),IC50 [1]
≥ 100000 nM,"CCOc1ccccc1CCC(=O)Nc1sc2c(c1C#N)CCC(OC(=O)NCc1ccno1)C2 (stereo not shown) [Example 207, Isoxazol-5-ylmethyl-carbamic acid 3-cyano-2-[3-(2-ethoxy-phenyl)-propanoylamino]-4,5,6,7-tetrahydro-benzo[b]thiophen-6-yl ester]",≤ 501 nM
≥ 100000 nM,"CCNC(=O)OCC1CCc2c(sc(NC(=O)CCc3cccc(OC)c3)c2C#N)C1 (stereo not shown) [Example 252, Ethyl-carbamic acid 3-cyano-2-[3-(3-methoxy-phenyl)-propanoylamino]-4,5,6,7-tetrahydro-benzo[b]thiophen-6-ylmethyl ester]",≤ 501 nM
≥ 100000 nM,"CCOc1ccccc1CCC(=O)Nc1sc2c(c1C#N)CCC(OC(=O)N1CCCC1)C2 (stereo not shown) [Example 208, Pyrrolidine-1-carboxylic acid 3-cyano-2-[3-(2-ethoxy-phenyl)-propanoylamino]-4,5,6,7-tetrahydro-benzo[b]thiophen-6-yl ester]",≤ 501 nM
≥ 100000 nM,"Cc1oncc1CNC(=O)OC1CCc2c(sc(NC(=O)CC(C)c3cccnc3)c2C#N)C1 (stereo not shown) [Example 354, (5-Methyl-isoxazol-4-ylmethyl)-carbamic acid 3-cyano-2-(3-pyridin-3-yl-butanoylamino)-4,5,6,7-tetrahydro-benzo[b] thiophen-6-yl ester]",501 to 2000 nM
≥ 10000 nM,"Cc1n[nH]cc1CNC(=O)OCC1CCc2c(sc(NC(=O)CC(C)c3ccccc3)c2C#N)C1 (stereo not shown) [Example 317, (3-Methyl-1H-pyrazol-4-ylmethyl)-carbamic acid 3-cyano-2-(3-phenyl-butanoylamino)-4,5,6,7-tetrahydro-benzo[b] thiophen-6-ylmethyl ester]",≤ 501 nM

# More lines, now with the values behind:
Structure (SMILES),IC50 [2],IC50 [1]
"N#Cc1c(NC(=O)/C=C/c2cccnc2)sc2c1CCC(COC(=O)NCCc1cccnc1)C2 (stereo not shown) [Example 19, (2-Pyridin-3-yl-ethyl)-carbamic acid 3-cyano-2-((E)-3-pyridin-3-yl-allanoylamino)-4,5,6,7-tetrahydro-benzo[b]thiophen-6-ylmethyl ester]",≥ 100000 nM,501 to 2000 nM
"Cc1cc(CNC(=O)OCC2CCc3c(sc(NC(=O)/C=C/c4cccnc4)c3C#N)C2)no1 (stereo not shown) [Example 47, (5-Methyl-isoxazol-3-ylmethyl)-carbamic acid 3-cyano-2-((E)-3-pyridin-3-yl-allanoylamino)-4,5,6,7-tetrahydro-benzo[b]thiophen-6-ylmethyl ester]",≥ 100000 nM,≤ 501 nM
"N#Cc1c(NC(=O)/C=C/c2cccnc2)sc2c1CCC(OC(=O)NCc1ccno1)C2 (stereo not shown) [Example 60, Isoxazol-5-ylmethyl-carbamic acid 3-cyano-2-((E)-3-pyridin-3-yl-allanoylamino)-4,5,6,7-tetrahydro-benzo[b]thiophen-6-yl ester]",≥ 100000 nM,501 to 2000 nM
"N#Cc1c(NC(=O)/C=C/c2cccnc2)sc2c1CCC(OC(=O)NC1CCCCC1)C2 (stereo not shown) [Example 142, Cyclohexyl-carbamic acid 3-cyano-2-((E)-3-pyridin-3-yl-allanoylamino)-4,5,6,7-tetrahydro-benzo[b]thiophen-6-yl ester]",≥ 100000 nM,501 to 2000 nM
"COC(=O)OC1CCc2c(sc(NC(=O)/C=C/c3cccnc3)c2C#N)C1 (stereo not shown) [Example 55, Carbonic acid 3-cyano-2-((E)-3-pyridin-3-yl-allanoylamino)-4,5,6,7-tetrahydro-benzo[b]thiophen-6-yl ester methyl ester]",≥ 100000 nM,≤ 501 nM
"CCOc1ccccc1CCC(=O)Nc1sc2c(c1C#N)CCC(COC(=O)OCc1ccsn1)C2 (stereo not shown) [Example 202, Carbonic acid 3-cyano-2-[3-(2-ethoxy-phenyl)-propanoylamino]-4,5,6,7-tetrahydro-benzo[b]thiophen-6-ylmethyl ester isothiazol-3-ylmethyl ester]",≥ 100000 nM,≤ 501 nM
